Results reported in EP0485890A2, “Use of 2,3-disubstituate 1-azolyl-propane for inhibiting the pathogenic growth phase of dimorph yeast cell” (HOECHST AKTIENGESELLSCHAFT, priority 1990, dated 1992).
Values after ≈ are worked out from the molar mass of the structure shown.

Columns and labels:
[1] = test system: Lysophospholipase (Phospholipase B); assay: In vitro enzyme test: inhibition of released exoenzymes (phospholipase) of Candida albicans blastoconidia on egg-yolk agar; assay type: cell-based; conditions: Candida albicans Stamm 200/175
From the text: Als Beispiel für die Hemmung der pathogenen Phase dimorpher Hefezellen werden Ergebnisse eines in-vitro-Enzymtests angeführt, in welchen die prozentuale Hemmung freigesetzter Exoenzyme, insbesondere freigesetzter Lysophospholipase (Phospholipase B), als Maß für die Wirksamkeit bestimmt wird.
Zur Feststellung der Enzymhemmung wurde eine Suspension von Candida albicans Blastokonidien (Stamm 200/175), wobei die Keimdichte photometrisch auf eine Extinktion von 0,5 (500 nm) eingestellt war, mit Präparatelösung bzw. zur Kontrolle mit Lösungsmittellösung vermischt und zwar • a) 100 ul Präparatelösung (Suspension) • + 900 µl Keimsuspension • b) 100 µl Lösungsmittel • + 900 µl Keimsuspension • Jeweils 5 µl der 30 min bei 21 ° C inkubierten Blastokonidiensuspension wurden auf eine Agarplatte (Sabourand Agar mit Zusatz von 8 % Eigelb, 1 M NaCI, 5 mM CaC12) aufgetropft. • Die so beimpfte Platte wurde 3 Tage bei 37 ° C bebrütet.
Die Auswertung erfolgte derart, daß • 1. der Durchmesser (mm) der Candida albicans-Kolonie (behandelt und unbehandelt) sowie • 2. der Gesamtdurchmesser von Kolonie und Trübungshof, welcher durch Exoenzyme verursacht wurde (behandelt und unbehandelt) bestimmt wurde.
Aus der Bestimmung des Quotienten von Präparate- und Kontrollgruppe ergab sich ein Wert, der als Maß für die Enzymaktivität anzusehen war.

[2] = test system: Candida albicans; assay: Minimal inhibitory concentration (MHK) in vitro; assay type: cell-based; conditions: read-out: MHK von Candida albicans
From the text: Außerdem wird deutlich, daß zur Erreichung einer ausgeprägten Hemmwirkung der Phospholipase-Aktivität Dosen ausreichen, die deutlich unterhalb derjenigen liegen, die zur Hemmung des Pilzwachstums in vitro nötig sind und welche bisher für eine reine antimykotische Therapie als unbedingt erforderlich erachtet wurden (sihe MHK-Werte von Candida albicans einiger ausgewählter Derivate).

| Compound | % Hemmung der Phospholipase ([1]; Konzentration 10 µg/ml) | % Hemmung der Phospholipase ([1]; Konzentration 50 µg/ml) | MIC [2] [µg/mL] | further results |
| --- | --- | --- | --- | --- |
| CC(=NOCC(Cn1ccnc1)OCc1ccc(Cl)cc1)c1ccc(Cl)cc1 (stereo not drawn) [1.24] | 24,3% | 50% | – | – |
| Clc1ccc(N2CCN(C(COCc3ccc(Cl)cc3Cl)Cn3ccnc3)CC2)cc1 (stereo not drawn) [1.20] | – | 100% | – | – |
| COC(CN(Cc1ccc(Cl)cc1)c1ccc(Cl)cc1)Cn1ccnc1 (stereo not drawn) [1.6] | – | 100% | – | – |
| CCN(CC(Cn1ccnc1)OCc1ccc(Cl)cc1)c1ccc(Cl)cc1Cl (stereo not drawn) [1.18] | – | 60% | – | – |
| Clc1ccc(N2CCN(C(COc3ccc(Cl)cc3Cl)Cn3ccnc3)CC2)cc1 (stereo not drawn) [1.11] | – | 100% | – | – |
| OC(CN(Cc1ccc(Cl)cc1)c1ccc(Cl)cc1)Cn1ccnc1 (stereo not drawn) [1.5] | – | 100% | – | – |
| CC(=NOCC(Cn1ccnc1)Sc1ccc(Cl)cc1)c1ccc(Cl)cc1 (stereo not drawn) [1.26] | 50% | 90% | – | – |
| CCN(CC(Cn1ccnc1)SCc1ccc(Cl)cc1)c1cccc(C(F)(F)F)c1 (stereo not drawn) [1.19] | – | 71,4% | 125 (≈ 275 µM) | – |
| OC(CN(Cc1ccc(Cl)cc1)Cc1ccc(Cl)cc1)Cn1ccnc1 (stereo not drawn) [1.8] | – | 100% | – | – |
| CC(=NOCC(Cn1ccnc1)OCc1ccc(Cl)cc1Cl)c1ccc(Cl)cc1 (stereo not drawn) [1.23] | 35,7% | 100% | – | – |
| Clc1ccc(OCC(Cn2ccnc2)N2CCN(c3ccccc3)CC2)cc1 (stereo not drawn) [1.9] | – | 100% | – | – |
| CCN(CC(Cn1ccnc1)Sc1ccc(Cl)cc1)c1ccc(Cl)c(Cl)c1 (stereo not drawn) [1.15] | – | 100% | 125 (≈ 284 µM) | – |
| CCN(CC(Cn1ccnc1)OCc1ccc(Cl)cc1Cl)c1cccc(Cl)c1 (stereo not drawn) [1.28] | – | 61,5% | 125 (≈ 285 µM) | % Hemmung der Phospholipase ([1]; Konzentration 100 µg/ml): 100% |
| COC(CN(Cc1ccc(Cl)cc1Cl)c1ccc(Cl)cc1)Cn1ccnc1 (stereo not drawn) [1.37] | 16,7% | – | – | – |
| CCN(CC(Cn1ccnc1)OCc1ccc(Cl)cc1Cl)c1ccc(Cl)c(Cl)c1 (stereo not drawn) [1.16] | – | 100% | 125 (≈ 264 µM) | – |
| CCN(CC(Cn1ccnc1)OCc1ccc(Cl)cc1)c1ccc(Cl)c(Cl)c1 (stereo not drawn) [1.14] | – | 30% | – | % Hemmung der Phospholipase ([1]; Konzentration 100 µg/ml): 100% |
| CCCCN(CC(Cn1ccnc1)OCc1ccc(Cl)cc1)c1ccc(Cl)cc1 (stereo not drawn) [1.33] | 24% | 80% | 125 (≈ 289 µM) | – |
| CC(=NOCC(Cn1ccnc1)OCc1ccc(Cl)cc1)c1ccc(Cl)cc1Cl (stereo not drawn) [1.29] | 20,6% | 100% | – | – |
| CCN(CC(Cn1ccnc1)OCc1ccc(Cl)cc1)c1cccc(C(F)(F)F)c1 (stereo not drawn) [1.17] | – | 12% | – | % Hemmung der Phospholipase ([1]; Konzentration 100 µg/ml): 38% |

| Compound | % Hemmung der Phospholipase ([1]; Konzentration 10 µg/ml) | % Hemmung der Phospholipase ([1]; Konzentration 50 µg/ml) | MIC [2] [µg/mL] | further results |
| --- | --- | --- | --- | --- |
| CCN(CC(Cn1ccnc1)OCc1ccc(Cl)cc1)c1cccc(Cl)c1 (stereo not drawn) [1.25] | 27,3% | 60% | – | – |
| CC(C)N(CC(Cn1ccnc1)OCc1ccc(Cl)cc1)c1ccc(Cl)c(Cl)c1 (stereo not drawn) [1.3] | 25% | 100% | 125 (≈ 276 µM) | – |
| CCCCCCCCN(CC(Cn1ccnc1)OCc1ccc(Cl)cc1)c1ccc(Cl)cc1 (stereo not drawn) [1.35] | 45% | 100% | > 125 | – |
| Clc1ccc(OCC(Cn2ccnc2)N2CCN(Cc3ccc(Cl)cc3Cl)CC2)cc1 (stereo not drawn) [1.31] | – | 38,6% | – | % Hemmung der Phospholipase ([1]; Konzentration 100 µg/ml): 90% |
| Clc1ccc(COC(CN2CCCc3ccccc32)Cn2ccnc2)c(Cl)c1 (stereo not drawn) [1.42] | – | 100% | – | – |
| Clc1ccc(COC(CN2CCN(c3ccc(Cl)cc3)CC2)Cn2ccnc2)cc1 (stereo not drawn) [1.4] | – | 100% | – | – |
| C=CCN(CC(Cn1ccnc1)OCc1ccc(Cl)cc1)c1ccc(Cl)cc1 (stereo not drawn) [1.34] | 10,7% | 100% | – | – |
| CCN(CC(Cn1ccnc1)OCC=C(C)CCC=C(C)C)c1ccc(Cl)cc1 (stereo not drawn) [1.1] | 100% | – | > 125 | % Hemmung der Phospholipase ([1]; Konzentration 1 µg/ml): 15%; % Hemmung der Phospholipase ([1]; Konzentration 5 µg/ml): 60% |
| Clc1ccc(COC(CNc2ccc(Cl)cc2)Cn2ccnc2)cc1 (stereo not drawn) [1.13] | – | 26% | – | % Hemmung der Phospholipase ([1]; Konzentration 100 µg/ml): 33% |
| CCN(CC(Cn1ccnc1)OCc1cccc(Cl)c1)c1ccc(Cl)cc1 (stereo not drawn) [1.21] | 12,7% | 50% | 125 (≈ 309 µM) | – |
| Clc1ccc(SC(COc2ccc(Cl)cc2Cl)Cn2ccnc2)cc1 (stereo not drawn) [1.10] | – | 50% | – | – |
| CCN(CC(O)Cn1ccnc1)c1ccc(Cl)c(Cl)c1 (stereo not drawn) [1.41] | 33,3% | 100% | – | – |
| Clc1ccc(COC(CN2CCCc3ccccc32)Cn2ccnc2)cc1 (stereo not drawn) [1.43] | 50% | 100% | – | – |
| CCCCCCCCOC(CN(CC)c1ccc(Cl)cc1)Cn1ccnc1 (stereo not drawn) [1.40] | 75,0% | 100% | 125 (≈ 319 µM) | – |
| Clc1ccc(CN2CCN(C(COc3ccc(Cl)cc3Cl)Cn3ccnc3)CC2)cc1 (stereo not drawn) [1.30] | – | 100% | – | – |
| CCN(CC(Cn1ccnc1)OCc1ccc(Cl)cc1)c1ccc(Cl)cc1 (stereo not drawn) [1.2] | – | 90% | – | – |
| CN(CC(Cn1ccnc1)OCc1ccc(Cl)cc1Cl)c1ccc(Cl)cc1 (stereo not drawn) [1.12] | – | 100% | – | – |
| CCN(CC(Cn1ccnc1)OCc1ccc(Cl)cc1Cl)c1ccc(Cl)cc1 (stereo not drawn) [1.22] | 23,1% | 100% | 125 (≈ 285 µM) | – |
| CC(=NOCC(Cn1ccnc1)OCc1ccc(Cl)cc1Cl)c1ccc(Cl)cc1Cl (stereo not drawn) [1.32] | 18,2% | 100% | 125 (≈ 257 µM) | – |
